These results are taken from ChEMBL document CHEMBL2203182, “Identification of benzoylisoquinolines as potential anti-Chagas agents” (2012).

Active and inactive are the calls of the source. The rule behind the calls is not given here.

The test system of assay [1] is Trypanosoma cruzi. Nature of the assay: Antitrypanosomal activity against bloodstream trypomastigote form of Trypanosoma cruzi NINOA isolated from infected mouse at the peak of parasitemia assessed as reduction in number of live parasites at 5 to 50 ug/ml after 24 hrs. It counts as functional, organism-based.
The subject of assay [2] is Trypanosoma cruzi. Nature of the assay: Antitrypanosomal activity against bloodstream trypomastigote form of Trypanosoma cruzi NINOA isolated from infected mouse at the peak of parasitemia assessed as reduction in number of live parasites at 18 to 36 uM after 24 hrs. Format: functional, organism-based.
In assay [3] the test system is Trypanosoma cruzi. Nature of the assay: Antitrypanosomal activity against bloodstream trypomastigote form of Trypanosoma cruzi NINOA isolated from infected mouse at the peak of parasitemia assessed as reduction in number of live parasites at 178 uM after 24 hrs. It counts as functional, organism-based.
Assay [4] has as its system Trypanosoma cruzi. Nature of the assay: Antitrypanosomal activity against bloodstream trypomastigote form of Trypanosoma cruzi NINOA isolated from infected mouse at the peak of parasitemia assessed as reduction in number of live parasites at 5 to 50 ug/ml after 24 hrs.
Assay [5] has as its system Trypanosoma cruzi. Nature of the assay: Antitrypanosomal activity against bloodstream trypomastigote form of Trypanosoma cruzi NINOA isolated from infected mouse at the peak of parasitemia assessed as reduction in number of live parasites at 161 uM after 24 hrs. It counts as functional. The arrangement: scale not given: the % may be the effect or the level left.

For `O=C(c1ccccc1)c1[nH]c(=O)c2ccccc2c1O`, in the assay with Trypanosoma cruzi [1], the result was inactive.

Take `Nc1cccc(C(=O)c2[nH]c(=O)c3ccccc3c2O)c1`: the result in the assay with Trypanosoma cruzi [2] and in the assay on Trypanosoma cruzi [4] was Active. In addition, the outcome in the assay with Trypanosoma cruzi [3] was inactive.

Consider `O=C(Cn1ccnc1[N+](=O)[O-])NCc1ccccc1`, for which the result with Trypanosoma cruzi [4] was Active.

Turning to `O=C(c1cccc([N+](=O)[O-])c1)c1[nH]c(=O)c2ccccc2c1O`, the Activity in the assay on Trypanosoma cruzi [5] amounted to 47%.
